Assay results reported in patent US20220072324A1, “METHOD AND SYSTEM FOR APPLYING PULSED ELECTRIC FIELDS WITH HIGH […] MAGNETIC CORES” (Board of Supervisors of Louisiana State University and …, priority 2018, published 2022).

Tested on: mouse breast cancer 4T1 cells xenografts
Test: In vivo validation of Targeted Osmotic Lysis (TOL) in a breast cancer mouse model
Design: species or system BALBc mice
Conditions: TOL: 7 mg/kg digoxin s.c. five times at 1 hr intervals plus pulsed magnetic fields from toroid device for 30 min, day 0 and day 1; versus control groups; FIG. 9
Method: FIG. 9 depicts in vivo validation of the therapeutic efficacy of pulsed magnetic fields inducing osmotic lysis in a breast cancer mouse model. Four groups of female, immune competent BALBc mice (n=8) with xenografts (0.7-1.2 cm diameter lower back) were established after injection of 500K highly malignant mouse breast cancer 4T1 cells in 7 mg/kg digoxin or saline (s.c. back of neck) five times at 1 hr intervals. This protocol establishes steady-state pharmacokinetics in even poorly vascularized tissues. The mice were exposed to the pulsed magnetic fields generated by a toroid device, for 30 min starting 15 min after the last injection. This treatment was administered on day 0 (first day of treatment), and on day 1. Mice were monitored for tumor growth and were sacrificed when they met the NIH criteria for humane endpoint euthanasia.

C[C@H]1O[C@@H](O[C@H]2[C@@H](O)C[C@H](O[C@H]3[C@@H](O)C[C@H](O[C@H]4CC[C@@]5(C)[C@H](CC[C@@H]6[C@@H]5C[C@@H](O)[C@]5(C)[C@@H](C7=CC(=O)OC7)CC[C@]65O)C4)O[C@@H]3C)O[C@@H]2C)C[C@H](O)[C@@H]1O [digoxin]
time until mice reached humane endpoint euthanasia criteria: significantly longer than mice in the control groups
